# Test results reported in patent US6407064B2, “Aminoalcohol derivative and medicament comprising the same” (Seikagaku Corporation, priority 1999, dated 2002).
# Tests used:
# [1] = system: cultured neurocytes of rat fetal cerebral cortex; assay: Activity of accelerating synapse formation (intracellular calcium ion level, fura-2); format: cell-based; conditions: relative value, L-PDMP regarded as 100; compound 20 μM; assay on 10th day of culture
# Method: The activity of accelerating synapse formation was determined by measuring change of an intracellular calcium ion level resulted from the synchronized spontaneous ignition of neurocytes which is considered to show synapse activities by means of an intracellular calcium ion multipoint observation system using a calcium ion fluorescence indicator, fura-2.
# Concretely, rat fetuses at the 18th day of pregnancy were taken out from Wistar rats (available from Japan SLC), and cerebral cortices of the fetuses were taken out and cut into small pieces. After having been treated with papain (manufactured by Worthington Biochemical) at 37° C. for 30 minutes, the pieces were suspended into a Dulbecco modified Eagle's medium containing 5% bovine neonatal serum and 5% equine serum and the cortices were dissociated into single cells with Cell Striner (70 μm, Falcon). Then, the cells were inoculated into a flexiperm plate coated with 0.5% polyethyleneimine (1.0×10^6 cells/500 μl/well), and was cultured in 7% CO2 incubator at 37° C. The medium was exchanged on 2nd, 5th, and 8th days after the culture had been started. The activity of the compound of the present invention was measured using the primary culture. The compound was added at the time when the medium was exchanged and the concentration of the compound was maintained to be 20 μM. Assay was carried out on 10th day after the culture had been started.
# (2) Measurement of Activity of Accelerating Synapse Formation
# Concretely, after the medium of each well where cells were cultured was substituted with basic salt solution (BSS), 3 μl of a DMSO solution (1 mg/ml) of a calcium ion fluorescence indicator fura-2 was added, and the whole was kept at 37° C. for 1 hour.
# [2] = system: enzyme for ganglioside GM3 synthesis, mouse B16 melanoma cell; assay: Activity of enzyme for ganglioside GM3 synthesis (14C-Gal incorporated in total lipid fraction); format: cell-based; conditions: relative value, control regarded as 100; test compound 24 μM, 24 hours; 14C-Gal incorporation
# Method: The gangliosides produced by mouse B16 melanoma cell are almost composed of ganglioside GM3. Therefore, the activity of the enzyme for ganglioside GM3 synthesis can be determined conveniently by measuring the amount of ^14C-Gal incorporated in a total lipid-extracted fraction through a liquid layer partition method.
# A liquid where the cells of mouse B16 melanoma were suspended was prepared with Dulbecco modified Eagle's medium containing 10% bovine fetal serum, inoculated into a 12-well plate in an amount of 2.0×10^5 cells/ml/well, and cultured in 5% CO2 incubator at 37° C. The treatment with a test compound (24 μM) and the addition of ^14C-Gal (22.2 kBq/11.7 nmol/6 μl/well) were started through the exchange of total amount of the medium 24 hours after the culture was started. Twenty-four hours after the treatment with the test compound was started, the culture mixture was treated with PBS containing 0.02% EDTA and PBS containing 0.25% trypsin successively to recover the cells.
# Then, a mixed solvent of chloroform:methanol=2:1 (3 ml) was added to the cell pellet and, after the subjection to an ultrasonication for 30 minutes, the supernatant was recovered. Furthermore, a mixed solvent of chloroform:methanol=1:1 (3 ml) was added to the residual pellet after the recovery of the supernatant, and a similar operation was carried out. The resulting supernatant was combined with the first supernatant and the whole was evaporated to dryness under a nitrogen stream. A desalinated water (1.0 ml) was added to the total lipid-extracted fraction. After having been subjected to an ultrasonication for 1 minute, the mixture was transferred into a dialysis tube and dialyzed against water for 2 days. The sample after the dialysis was transferred into a vial for liquid scintillation counter and, after the addition of scintillator, the activity of incorporating ^14C-Gal was measured on scintillation counter.
# The values of activity of the compounds of the present invention are shown as relative values obtained by calculation on the basis that the value of a control (a group where no test compound was added) is regarded as 100 in Table 3 below.
# [3] = Tissue distribution: concentration in plasma and skeletal muscle after oral or intravenous administration; format: in vivo; conditions: rat
# Method: Tissue distribution of the compound in Example 19 was compared with that of L-PDMP using 6-8 week old Wistar male rats.
# As oral administration, a physiological saline containing 20 mg/ml of a test substance was administered at 100 mg/5 ml/kg, and as intravenous administration, a physiological saline containing 1.25 mg/ml of a test substance was administered to the cervical vein at 5 mg/4 ml/kg.
# After the predetermined time had passed since the above administration, blood was collected from the rat cervical vein, a 3.8% sodium citrate solution was added thereto at 1/10 volume, followed by centrifugation at 3,000 rpm for 15 minutes to obtain the supernatant as a plasma sample.
# Also, after the predetermined time had passed since the above administration, the skeletal muscle was collected from the femoral region of both hind legs, ice water was added thereto at 4 ml/g tissue, followed by homogenization, and the same volume of acetonitrile was added thereto, followed by vigorously stirring and centrifugation at 4000 rpm for 10 minutes to obtain the supernatant as a skeletal muscle sample.
# The plasma and skeletal muscle samples were extracted by OASIS HLB solid phase extraction column (manufactured by Waters), and the concentration of the test compound in the plasma and the muscle was determined by high performance liquid chromatography (HPLC). The conditions of HPLC analysis were as follows:
# Detection wavelength: 218 nm
# Column: DAISO PACK SP-120-5-ODS-BP
# Column temperature: 40° C.
# Mobile phase: 0.1% trifluoroacetic acid solution:methanol=36:64 (for L-PDMP); 0.1% trifluoroacetic acid solution:methanol=48:52 (for the compound in Example 19)
# The concentrations in the plasma and skeletal muscle of the compound in Example 19 and L-PDMP after the predetermined time has been passed since the administration of the test compounds are shown in Tables 4-6 below. The values are the mean values of at least two test samples. Specifically, Table 4, Table 5, and Table 6 show the concentrations in the plasma after the oral administration of 100 mg/kg, the concentrations in the skeletal muscle after the oral administration of 100 mg/kg, and the concentrations in the plasma after the intravenous administration of 5 mg/kg, respectively.
Molecule,Activity of synapse formation [1],also measured
"(1S,2S)-2-(5-hexylcarbamoyl)pentanoylamino-3-morpholino-1-phenyl-1-propanol [Example 13]",95.0,–
"CCOC(=O)CCCCC(=O)N[C@@H](CN1CCOCC1)[C@@H](O)c1ccccc1 [Example 6, (1S,2S)-2-ethoxyhexanedioylamino-3-morpholino-1-phenyl-1-propanol]",87.5,–
"CCCCCCNC(=O)C1CCC(C(=O)N[C@@H](CN2CCOCC2)[C@@H](O)c2ccccc2)CC1 (stereo partly drawn) [Example 17, (1S,2S)-2-(cyclohexane-4-hexylcarbamoyl-1-carbonyl)amino-3-morpholino-1-phenyl-1-propanol]",90.0,–
"CCNC(=O)CCCCC(=O)N[C@@H](CN1CCOCC1)[C@@H](O)c1ccccc1 [Example 11, (1S,2S)-2-(5-ethylcarbamoyl)pentanoylamino-3-morpholino-1-phenyl-1-propanol]",93.3,–
"CCCCNC(=O)CCCCCCCCC(=O)N[C@@H](CN1CCOCC1)[C@@H](O)c1ccccc1 [Example 14, (1S,2S)-2-(9-butylcarbamoyl)nonanoylamino-3-morpholino-1-phenyl-1-propanol]",94.2,–
"N[C@@H](CCCCNC(=O)CCCCC(=O)N[C@@H](CN1CCOCC1)[C@@H](O)c1ccccc1)C(=O)O [Example 26, (1S,2S,12S)-2-(12-amino-7-aza-6-oxo-12-carboxydodecanoyl)amino-3-morpholino-1-phenyl-1-propanol]",95.0,–
O=C(CNC(=O)OCc1ccccc1)NCC(=O)N[C@@H](CN1CCOCC1)[C@@H](O)c1ccccc1 [Example 2],–,Activity of accelerating glycolipid biosynthesis (Test Example 2) [2]: 130.9
"CCCCCCNC(=O)CCCCCCCCC(=O)N[C@@H](CN1CCOCC1)[C@@H](O)c1ccccc1 [Example 15, (1S,2S)-2-(9-hexylcarbamoyl)nonanoylamino-3-morpholino-1-phenyl-1-propanol]",90.0,–
"CC(=O)NC1C(O)CC(CCCCCCCCC(=O)N[C@@H](CN2CCOCC2)[C@@H](O)c2ccccc2)(C(=O)O)OC1C(O)C(O)CO (stereo partly drawn) [Example 28, (1S,2S)-2-(9-sialylnonanoyl)amino-3-morpholino-1-phenyl-1-propanol]",95.8,–
"N[C@@H](CCCCNC(=O)CCCCCCCCC(=O)N[C@@H](CN1CCOCC1)[C@@H](O)c1ccccc1)C(=O)O [Example 27, (1S,2S,16S)-2-(16-amino-11-aza-10-oxo-16-carboxyhexadecanoyl)amino-3-morpholino-1-phenyl-1-propanol]",100.0,–
"CC(=O)CCCCCC(=O)N[C@@H](CN1CCOCC1)[C@@H](O)c1ccccc1 [Example 22, (1S,2S)-2-(7-oxooctanoyl)amino-3-morpholino-1-phenyl-1-propanol]",88.3,–
"O=C(CCCCCCCCCO)N[C@@H](CN1CCOCC1)[C@@H](O)c1ccccc1 [Example 23, (1S,2S) -2-(10-hydroxydecanoyl) amino-3-morpholino-1-phenyl-1-propanol]",85.8,–
"CCCCCC(=O)NCC(=O)N[C@@H](CN1CCOCC1)[C@@H](O)c1ccccc1 [Example 4, (1S,2S)-2-(n-hexanoyl)glycylamino-3-morpholino-1-phenyl-1-propanol]",–,Activity of accelerating glycolipid biosynthesis (Test Example 2) [2]: 71.3
"CCCCCCOCCOCC(=O)N[C@@H](CN1CCOCC1)[C@@H](O)c1ccccc1 [Example 21, (1S,2S)-2-(3,6-dioxadodecanoyl)amino-3-morpholino-1-phenyl-1-propanol]",97.5,–
O=C(CNC(=O)OCc1ccccc1)N[C@@H](CN1CCOCC1)[C@@H](O)c1ccccc1 [Example 1],–,Activity of accelerating glycolipid biosynthesis (Test Example 2) [2]: 85.2
CCCCOC(=O)NCC(=O)N[C@@H](CN1CCOCC1)[C@@H](O)c1ccccc1 [Example 3],–,Activity of accelerating glycolipid biosynthesis (Test Example 2) [2]: 98.6
"CCCCN(C)C(=O)CCC(=O)N[C@@H](CN1CCOCC1)[C@@H](O)c1ccccc1 [Example 10, (1S,2S)-2-(N-butyl-N-methylamino)butanedioylamino-3-morpholino-1-phenyl-1-propanol]",91.7,–
"CCCCOCCOCC(=O)N[C@@H](CN1CCOCC1)[C@@H](O)c1ccccc1 [Example 19, (1S,2S)-2-(3,6-dioxadecanoyl)amino-3-morpholino-1-phenyl-1-propanol]",90.8,"concentration at 10 min ([3]; male, Wistar, plasma, intravenous administration of 5 mg/kg, 10 min): 2240 ng/mL; concentration at 25 min ([3]; male, Wistar, plasma, intravenous administration of 5 mg/kg, 25 min): 560 ng/mL; concentration at 5 min ([3]; male, Wistar, plasma, oral administration of 100 mg/kg, 5 min): 2620 ng/mL; concentration at 15 min ([3]; male, Wistar, plasma, oral administration of 100 mg/kg, 15 min): 8660 ng/mL; concentration at 30 min ([3]; male, Wistar, plasma, oral administration of 100 mg/kg, 30 min): 6140 ng/mL; concentration at 60 min ([3]; male, Wistar, plasma, oral administration of 100 mg/kg, 60 min): 950 ng/mL; retention in plasma and skeletal muscle compared with L-PDMP ([3]; in words): kept in the plasma and skeletal muscle for a longer time; tissue distribution compared with L-PDMP ([3]; in words): higher tissue distribution than L-PDMP"
"(1S,2S)-2-(5-cyclohexylcarbamoyl)pentanoylamino-3-morpholino-1-phenyl-1-propanol [Example 12]",80.0,–
